Measured values: US20240150377A1, “MODULATORS OF CYSTIC FIBROSIS TRANSMEMBRANE CONDUCTANCE REGULATOR” (VERTEX PHARMACEUTICALS INCORPORATED, priority 2020, published 2024)
Where two headings read alike, the source gives them in different places.

Biological target: T1, CFTR (Homo sapiens, UniProt P13569, DEL508-508)
T1 construct: endogenous in cells; host or cells: primary human bronchial epithelial cells from CF subjects (F508del/MF-HBE), differentiated at air-liquid interface
Assay: HBE assay: Ussing chamber assay of CFTR-mediated short-circuit currents
Format: cell-based
Conditions: for Emax: read-out: HBE Max activity (%); for activation at 10 µM: read-out: HBE Activity at 10 μM (%)
In short: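 CFTR-mediated Isc (μA/cm²) equals the peak response to apical 20 μM forskolin minus the residual after a 20 μM each BPO/GlyH-101/CFTR inhibitor 172 cocktail, recorded in Ussing chambers at Vhold 0 mV, 37 °C, pH 7.4, with 30 μM apical amiloride. Cells were F508del/MF HBE cultures preincubated 18-24 h with corrector (concentration range or 10 μM) plus 1 μM ivacaftor in 20% human serum.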

T1 sequence (P13569 with tags, fused parts or gaps DEL508-508): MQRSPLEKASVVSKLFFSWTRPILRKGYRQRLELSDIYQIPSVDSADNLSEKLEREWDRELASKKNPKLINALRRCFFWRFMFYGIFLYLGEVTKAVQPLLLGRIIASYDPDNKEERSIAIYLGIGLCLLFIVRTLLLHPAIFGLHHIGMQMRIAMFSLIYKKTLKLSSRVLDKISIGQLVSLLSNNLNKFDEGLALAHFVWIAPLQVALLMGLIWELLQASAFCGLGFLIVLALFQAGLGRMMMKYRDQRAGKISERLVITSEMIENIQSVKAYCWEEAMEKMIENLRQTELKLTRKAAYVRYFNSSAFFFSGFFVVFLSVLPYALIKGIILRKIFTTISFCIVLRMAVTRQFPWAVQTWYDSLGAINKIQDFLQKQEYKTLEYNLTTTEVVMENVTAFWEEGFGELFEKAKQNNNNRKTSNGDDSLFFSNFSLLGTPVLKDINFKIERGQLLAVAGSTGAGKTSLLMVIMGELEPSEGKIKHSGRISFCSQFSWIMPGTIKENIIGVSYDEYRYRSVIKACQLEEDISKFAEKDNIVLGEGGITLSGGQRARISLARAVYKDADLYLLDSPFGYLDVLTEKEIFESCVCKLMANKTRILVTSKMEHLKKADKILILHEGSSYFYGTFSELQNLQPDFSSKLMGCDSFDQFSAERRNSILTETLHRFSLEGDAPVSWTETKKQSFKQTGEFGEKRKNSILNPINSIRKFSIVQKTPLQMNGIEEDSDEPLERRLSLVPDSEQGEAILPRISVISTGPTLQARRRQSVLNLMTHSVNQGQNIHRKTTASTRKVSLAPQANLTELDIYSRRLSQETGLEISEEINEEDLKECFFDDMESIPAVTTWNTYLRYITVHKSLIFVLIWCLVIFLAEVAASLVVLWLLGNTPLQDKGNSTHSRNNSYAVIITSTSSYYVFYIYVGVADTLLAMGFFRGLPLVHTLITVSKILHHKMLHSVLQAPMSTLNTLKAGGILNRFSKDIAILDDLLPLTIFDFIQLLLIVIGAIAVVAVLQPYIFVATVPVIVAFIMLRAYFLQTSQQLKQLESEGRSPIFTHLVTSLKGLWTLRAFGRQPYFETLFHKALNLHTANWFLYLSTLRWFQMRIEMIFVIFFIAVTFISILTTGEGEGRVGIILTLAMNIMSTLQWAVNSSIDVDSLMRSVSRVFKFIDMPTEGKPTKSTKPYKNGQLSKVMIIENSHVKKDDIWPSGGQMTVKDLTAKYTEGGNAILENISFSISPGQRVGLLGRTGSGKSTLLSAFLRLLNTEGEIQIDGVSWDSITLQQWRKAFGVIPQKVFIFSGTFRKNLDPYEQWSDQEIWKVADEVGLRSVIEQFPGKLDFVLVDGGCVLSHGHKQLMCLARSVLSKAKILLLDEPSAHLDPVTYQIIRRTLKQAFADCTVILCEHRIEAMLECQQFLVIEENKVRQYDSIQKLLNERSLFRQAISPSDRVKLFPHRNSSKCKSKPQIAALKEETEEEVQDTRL

Structure (SMILES)	EC50 (HBE assay, read-out: HBE EC50)	Emax (HBE assay)	activation at 10 µM (HBE assay, 10 μM)	other results
Cc1cccc(C)c1-c1cc2nc(n1)NS(=O)(=O)c1cccc(c1)C(=O)N(Cc1ccnc(N3CCC[C@H]3C)n1)[C@H](CC(C)(C)C)CO2 [Compound 1449]	< 1 µM	> 60%	–	–
COC[C@H]1CC[C@@H](C)N1c1cncc(CN2C(=O)c3cccc(c3)S(=O)(=O)Nc3nc(cc(-c4c(C)cccc4C)n3)OC[C@H]2CC(C)(C)C)n1 [Compound 1450]	< 1 µM	> 60%	–	–
CO[C@H](C)[C@@H]1CCCN1c1cncc(CN2C(=O)c3cccc(c3)S(=O)(=O)Nc3nc(cc(-c4c(C)cccc4C)n3)OC[C@H]2CC(C)(C)C)n1 [Compound 1451]	< 1 µM	> 60%	–	–
CC[C@H](C)Oc1cnc(CN2C(=O)c3cccc(c3)S(=O)(=O)Nc3nc(cc(-c4c(C)cccc4C)n3)OC[C@H]2CC2CC2)nc1 [Compound 1453]	1 to 3 µM	> 60%	–	–
Cc1cccc(C)c1-c1cc2nc(n1)NS(=O)(=O)c1cccc(c1)C(=O)N(Cc1ncc(OC3CC(C)(C)C3)cn1)[C@H](CC1CC1)CO2 [Compound 1454]	< 1 µM	> 60%	–	–
Cc1cccc(C)c1-c1cc2nc(n1)NS(=O)(=O)c1cccc(c1)C(=O)N(Cc1ncc(O[C@@H](C)C(C)C)cn1)[C@H](CC1CC1)CO2 [Compound 1455]	< 1 µM	> 60%	–	–
Cc1cccc(C)c1-c1cc2nc(n1)NS(=O)(=O)c1cccc(c1)C(=O)N(Cc1cnc(N(C)CCOC(C)C)o1)[C@H](CC(C)(C)C)CO2 [Compound 1460]	–	–	> 60%	–
CCO[C@H]1C[C@@H](Oc2cnc(CN3C(=O)c4cccc(c4)S(=O)(=O)Nc4nc(cc(-c5c(C)cccc5C)n4)OC[C@H]3CC(C)C)nc2)C1 [Compound 1461]	< 1 µM	> 60%	–	–
Cc1cccc(C)c1-c1cc2nc(n1)NS(=O)(=O)c1cccc(c1)C(=O)N(Cc1ncc(OC3CCCC3)cn1)[C@H](CC1CC1)CO2 [Compound 1463]	< 1 µM	> 60%	–	–
Cc1cccc(C)c1-c1cc2nc(n1)NS(=O)(=O)c1cccc(c1)C(=O)N(Cc1ncc(N3CCC(C)(C)C3)cn1)[C@H](CC1CC1)CO2 [Compound 1464]	< 1 µM	> 60%	–	–
Cc1cccc(C)c1-c1cc2nc(n1)NS(=O)(=O)c1cccc(c1)C(=O)N(Cc1ncc(OC(C)C)cn1)C(C(C)C(C)C)CO2 (stereo not drawn) [Compound 1466]	–	–	> 60%	–
Cc1cccc(C)c1-c1cc2nc(n1)NS(=O)(=O)c1cccc(c1)C(=O)N(Cc1ncc(OC(C)C)cc1F)[C@H](CC1CC1)CO2 [Compound 1467]	1 to 3 µM	> 60%	–	–
Cc1cccc(C)c1-c1cc2nc(n1)NS(=O)(=O)c1cccc(c1)C(=O)N(Cc1ncc(OC3CCC3)cc1F)[C@H](CC1CC1)CO2 [Compound 1468]	< 1 µM	> 60%	–	–
Cc1cccc(C)c1-c1cc2nc(n1)NS(=O)(=O)c1cccc(c1)C(=O)N(Cc1ncc(N3CCC(F)(F)C3)cn1)[C@H](CC1CC1)CO2 [Compound 1469]	< 1 µM	> 60%	–	–
CC[C@H](C)[C@@H]1COc2cc(-c3c(C)cccc3C)nc(n2)NS(=O)(=O)c2cccc(c2)C(=O)N1Cc1ncc(OC(C)C)cn1 [Compound 1471]	< 1 µM	> 60%	–	–
CC[C@H](C)[C@@H]1COc2cc(-c3c(C)cccc3C)nc(n2)NS(=O)(=O)c2cccc(c2)C(=O)N1Cc1ncc(OC2CCC2)cn1 [Compound 1472]	< 1 µM	> 60%	> 60%	–
CC[C@@H](C)[C@@H]1COc2cc(-c3c(C)cccc3C)nc(n2)NS(=O)(=O)c2cccc(c2)C(=O)N1Cc1ncc(OC(C)C)cn1 [Compound 1473]	< 1 µM	> 60%	–	–
CC[C@@H](C)[C@@H]1COc2cc(-c3c(C)cccc3C)nc(n2)NS(=O)(=O)c2cccc(c2)C(=O)N1Cc1ncc(OC2CCC2)cn1 [Compound 1474]	< 1 µM	> 60%	–	–
Cc1cccc(C)c1-c1cc2nc(n1)NS(=O)(=O)c1cccc(c1)C(=O)N(Cc1ccnc(N3CCC[C@H]3C(C)C)n1)[C@H](CC(C)(C)C)CO2 [Compound 1475]	< 1 µM	> 60%	–	–
Cc1cccc(C)c1-c1cc2nc(n1)NS(=O)(=O)c1cccc(c1)C(=O)N(Cc1cccc(N3CCC[C@H]3C3CC3)n1)[C@H](CC(C)(C)C)CO2 [Compound 1497]	–	–	–	EC50 (HBE EC50 (μM), HBE assay): < 1 µM; Emax: > 60%
Cc1cccc(C)c1-c1cc2nc(n1)NS(=O)(=O)c1cccc(c1)C(=O)N(Cc1cncc(N3CCC[C@H]3C3CC3)n1)[C@H](CC1CC1)CO2 [Compound 1502]	–	–	–	EC50 (HBE EC50 (μM), HBE assay): < 1 µM; activation at 10 µM: > 60%; Emax: > 60%

Now from value to molecule, other results behind:

EC50 (HBE assay, read-out: HBE EC50)	Emax (HBE assay)	activation at 10 µM (HBE assay, 10 μM)	Structure (SMILES)	other results
< 1 µM	> 60%	–	Cc1cccc(C)c1-c1cc2nc(n1)NS(=O)(=O)c1cccc(c1)C(=O)N(Cc1ncc(N3CCC(C)(C)C3)cn1)[C@H](CC1CCC1)CO2 [Compound 1477]	–
< 1 µM	> 60%	–	Cc1cccc(C)c1-c1cc2nc(n1)NS(=O)(=O)c1cccc(c1)C(=O)N(Cc1ncc(OC3CC4(CC4)C3)cn1)[C@H](CC1CC1)CO2 [Compound 1478]	–
< 1 µM	> 60%	–	Cc1cccc(C)c1-c1cc2nc(n1)NS(=O)(=O)c1cccc(c1)C(=O)N(Cc1ncc(N3CCC(F)(F)C3)cn1)[C@H](CC1CCC1)CO2 [Compound 1479]	–
< 1 µM	> 60%	–	Cc1cccc(C)c1-c1cc2nc(n1)NS(=O)(=O)c1cccc(c1)C(=O)N(Cc1ncc(N3C[C@@H](F)[C@@H](F)C3)cn1)[C@H](CC(C)(C)C)CO2 [Compound 1481]	–
< 1 µM	> 60%	–	CCOc1cnc(CN2C(=O)c3cccc(c3)S(=O)(=O)Nc3nc(cc(-c4c(C)cccc4C)n3)OC[C@H]2CC2CC2)nc1 [Compound 1482]	–
< 1 µM	> 60%	–	COC(C)(C)CNc1cncc(CN2C(=O)c3cccc(c3)S(=O)(=O)Nc3nc(cc(-c4c(C)cccc4C)n3)OC[C@H]2CC(C)(C)C)n1 [Compound 1483]	–
–	–	> 60%	COCC1(CNc2cncc(CN3C(=O)c4cccc(c4)S(=O)(=O)Nc4nc(cc(-c5c(C)cccc5C)n4)OC[C@H]3CC(C)(C)C)n2)CC1 [Compound 1484]	–
–	–	> 60%	Cc1cccc(C)c1-c1cc2nc(n1)NS(=O)(=O)c1cccc(c1)C(=O)N(Cc1ncc(OC3CCC3)cn1)[C@H](CCC(C)(C)C)CO2 [Compound 1486]	–
< 1 µM	> 60%	–	CCOc1cnc(CN2C(=O)c3cccc(c3)S(=O)(=O)Nc3nc(cc(-c4c(C)cccc4C)n3)OC[C@H]2CC2CCC2)nc1 [Compound 1487]	–
< 1 µM	> 60%	–	CCOc1cnc(CN2C(=O)c3cccc(c3)S(=O)(=O)Nc3nc(cc(-c4c(C)cccc4C)n3)OC[C@H]2CCC(C)(C)C)nc1 [Compound 1488]	–
< 1 µM	> 60%	–	CCOc1cnc(CN2C(=O)c3cccc(c3)S(=O)(=O)Nc3nc(cc(-c4c(C)cccc4C)n3)OC[C@H]2CC(C)(C)C(F)(F)F)nc1 [Compound 1489]	–
< 1 µM	> 60%	–	CCOc1cnc(CN2C(=O)c3cccc(c3)S(=O)(=O)Nc3nc(cc(-c4c(C)cccc4C)n3)OC[C@H]2CC2(C(F)(F)F)CC2)nc1 [Compound 1490]	–
< 1 µM	> 60%	–	COC(C)(C)CN(C)c1cncc(CN2C(=O)c3cccc(c3)S(=O)(=O)Nc3nc(cc(-c4c(C)cccc4C)n3)OC[C@H]2CC(C)(C)C)n1 [Compound 1491]	–
< 1 µM	> 60%	–	Cc1cccc(C)c1-c1cc2nc(n1)NS(=O)(=O)c1cccc(c1)C(=O)N(Cc1cncc(N3CCC[C@H]3COC(C)C)n1)[C@H](CC(C)(C)C)CO2 [Compound 1494]	–
–	–	> 60%	Cc1cccc(C)c1-c1cc2nc(n1)NS(=O)(=O)c1cccc(c1)C(=O)N(Cc1ncc(N3CC(F)C3)cn1)[C@H](CC(C)(C)C)CO2 [Compound 1498]	–
< 1 µM	> 60%	> 60%	Cc1cccc(C)c1-c1cc2nc(n1)NS(=O)(=O)c1cccc(c1)C(=O)N(Cc1cncc(N3CCC[C@H]3C(C)C)n1)[C@H](CC1CC1)CO2 [Compound 1499]	–
–	–	> 60%	Cc1cccc(C)c1-c1cc2nc(n1)NS(=O)(=O)c1cccc(c1)C(=O)N(Cc1ncc(N3CC(F)(F)C(F)(F)C3)cn1)[C@H](CC(C)(C)C)CO2 [Compound 1500]	–
–	–	> 60%	Cc1cccc(C)c1-c1cc2nc(n1)NS(=O)(=O)c1cccc(c1)C(=O)N(Cc1cccc(N3CCC[C@H]3C3CC3)n1)[C@H](CC1CC1)CO2 [Compound 1501]	–
< 1 µM	> 60%	> 60%	Cc1cccc(C)c1-c1cc2nc(n1)NS(=O)(=O)c1cccc(c1)C(=O)N(Cc1ncc(N3CC(C)(F)C3)cn1)[C@H](CC(C)(C)C)CO2 [Compound 1503]	–
–	–	> 60%	Cc1cccc(C)c1-c1cc2nc(n1)NS(=O)(=O)c1cccc(c1)C(=O)N(Cc1ncc(N3CCC4(CC4)C3)cn1)[C@H](CC(C)(C)C)CO2 [Compound 1504]	–
< 1 µM	> 60%	> 60%	Cc1cccc(C)c1-c1cc2nc(n1)NS(=O)(=O)c1cccc(c1)C(=O)N(Cc1ncc(N3CC(C)(C)C3)cn1)[C@H](CC1CC1)CO2 [Compound 1505]	–
–	–	> 60%	COCCN(c1cccc(CN2C(=O)c3cccc(c3)S(=O)(=O)Nc3nc(cc(-c4c(C)cccc4C)n3)OC[C@H]2CC(C)(C)F)n1)C(C)C [Compound 1508]	–
–	–	> 60%	Cc1cccc(C)c1-c1cc2nc(n1)NS(=O)(=O)c1cccc(c1)C(=O)N(Cc1ncc(OC3CCC3)cn1)[C@H](CC(C)(C)F)CO2 [Compound 1509]	–
–	–	> 60%	COC[C@@]1(C)CCCN1c1cccc(CN2C(=O)c3cccc(c3)S(=O)(=O)Nc3nc(cc(-c4c(C)cccc4C)n3)OC[C@H]2CC(C)(C)C)n1 [Compound 1510]	–
